Patent US20250288704A1, “CXCR4-LIGANDS FOR DIAGNOSTIC AND THERAPEUTIC USE AND PRECURSORS THEREOF” (priority 2021, published 2025)
Where two headings read alike, the source gives them in different places. Starred links: 1 amine or outer side, 2 acyl side, 3 side chain; linkers in the order of their positions; H or OH if unused. Positions of bridges follow the written chain, without caps; N, C: chain ends. Non-standard residues stand in square brackets, D forms with d. Residues, ends and D or L forms follow the SMILES beside them. Groups on a side chain read outwards from the residue. Chains are numbered I, II in the order given. *: point of attachment. X6 = CN1/C(=C/C=C/C=C/C2=[N+](CCCCCC(=O)*)c3ccc(S(=O)(=O)[O-])cc3C2(C)C)C(C)(C)c2cc(S(=O)(=O)O)ccc21; X7 = O=C(O)CN1CCN(CC(=O)O)CCN([C@H](CCC(=O)*)C(=O)O)CCN(CC(=O)O)CC1; Benzoyl(4-SiFtBu2) = CC(C)(C)[Si](F)(c1ccc(C(=O)*)cc1)C(C)(C)C; Dolaproine = CO[C@@H]([C@@H]1CCCN1)[C@@H](C)C(=O)O; Dil = CC[C@H](C)[C@H](NC)[C@@H](CC(=O)O)OC; d(γGlu) = O=C(O)[C@@H](CCC(=O)[*:2])N[*:1]; Tyr(3-I) = N[C@@H](Cc1ccc(O)c(I)c1)C(=O)O; X11 = O=C1CC([*:2])C(=O)N1CCCCCC(=O)[*:1]; 2Nal = N[C@@H](Cc1ccc2ccccc2c1)C(=O)O; d2Nal = N[C@H](Cc1ccc2ccccc2c1)C(=O)O; PABC = O=C(OCc1ccc(N[*:1])cc1)[*:2]; X10 = C[C@@H](N*)[C@@H](O)c1ccccc1; Cit = NC(=O)NCCC[C@H](N)C(=O)O; dNMeOrn = CN[C@H](CCCN)C(=O)O; NMeV = CN[C@H](C(=O)O)C(C)C; d(hCys) = N[C@H](CCS)C(=O)O; 4Abz = Nc1ccc(C(=O)O)cc1; dDap = NC[C@@H](N)C(=O)O; CO = O=C([*:1])[*:2]; Ahx = NCCCCCC(=O)O

Experiments:
[1] = Octanol/PBS partition coefficient (logD7.4); assay type: physicochemical; settings: n-octanol/PBS pH 7.4, radiolabeled compound
Protocol: The tubes were vortexed at maximum speed for 3 min to ensure equilibrium before centrifugation at 15.000×g for 5 min on a Biofuge 15 from Heraeus Holding GmbH (Osterode, Germany). An aliquot of 100 μL of each fraction was measured in the γ-counter and the log D7.4 calculated as follows: […]

CXCR4 = CXCR4 (Homo sapiens, UniProt P61073); assay: Determination of IC50: competition with 125I-Fc-131 on CXCR4-positive Jurkat cells; assay type: binding; design: CXCR4-positive Jurkat T lymphocyte cells were grown in Gibco's RPMI 1640 GlutaMAX medium; endogenous in cells; host or cells: Jurkat T lymphocyte cells (whole cells in suspension, 400.000 per tube);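 also: test compound at 10^−5 to 10^−11 M competed for 2 h at 8 °C with the radioligand on 400,000 cells per well, bound versus free activity measured by γ-counting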
[2] = system: CXCR4-expressing Chem_1 cells; assay: Determination of internalization, dual tracer with 125I-Fc-131; assay type: cell-based; settings: for Cell-bound [%] / Internalized [%]: of total cellular activity
Protocol: CXCR4-expressing Chem_1 cells were grown in DMEM-F12 medium supplemented with 10 vol % FBS, 1 vol % NEA, 1 vol % PenStrep and 1 vol % HEPES (1.00 M). Cells were maintained in a 5% CO2 atmosphere at 37° C.
For in vitro experiments, cells were harvested by removal of the medium and incubation of the cells with trypsine/EDTA (0.05%/0.02%; w/v) for 30 in at 37° C.
Each well (n=3 for every time point) was either treated with 25 μL DMEM-F12 (+5 wt % BSA) or 25 μL of an AMD3100 stock (1 mM in H2O) for blockage of the receptors.
The experiment was stopped by placing the well-plate on ice and removing the supernatant. The cells were washed with 250 μL cold HBSS and the both fractions for each well combined, comprising the amount of unbound radioligand.
The supernatant was removed, the cells washed with cold HBSS and the respective fractions combined to obtain the amount of surface-bound radioligand.
The cells were then incubated with 300 μL NaOH (1.00 M in H2O) for at least 30 at r.t. before the supernatant was removed. The well was washed with another 300 μL NaOH and the fractions combined that contain the amount of internalized radioligand.
The three different fractions were subjected to activity measurement in the γ-counter, measuring the activity of the radionuclide used for the labeling of the peptide under investigation first. […] Data was corrected for non-specific internalization and referred to the specific internalization of the standard ligand

[3] = Biodistribution in Jurkat tumor-bearing CB-17 SCID mice; assay type: in vivo; settings: female, CB-17 SCID, mouse, in vivo, iv, total radioactivity, 1 h p.i., Jurkat xenograft, CB-17 SCID female mice
Protocol: All animal experiments were conducted in accordance with general animal welfare regulations in Germany and the institutional guidelines for the care and use of animals. To establish tumor xenografts, Jurkat cells (2-3×10^7 cells) were suspended in a mixture of Gibco's RPMI 1640 medium and Matrigel (1/1; v/v) from BD Biosciences (Heidelberg, Germany), and inoculated subcutaneously onto the right shoulder of 6-10 weeks old CB17-SCID mice from either Charles River GmbH (Sulzfeld, Germany) or the in-house mouse breeding facility. Mice were used when tumors had grown to a diameter of 5-8 mm (4-10 weeks after inoculation).
Approximately 0.5-20 MBq (0.02-0.20 nmol) of the ^125I-, ^177Lu-, ^99mTc-, ^18F- or ^68Ga-labeled ligand were injected into the tail vein of Jurkat tumor-bearing CB-17 SCID mice and the animals sacrificed after the respective biodistribution time. Selected organs were removed, weighted and measured in a γ-counter.

[4] = unlabeled or cold (natGa/natLu) compound vs 125I-Fc-131, Jurkat cells

Chain of CXCR4 (P61073 whole entry): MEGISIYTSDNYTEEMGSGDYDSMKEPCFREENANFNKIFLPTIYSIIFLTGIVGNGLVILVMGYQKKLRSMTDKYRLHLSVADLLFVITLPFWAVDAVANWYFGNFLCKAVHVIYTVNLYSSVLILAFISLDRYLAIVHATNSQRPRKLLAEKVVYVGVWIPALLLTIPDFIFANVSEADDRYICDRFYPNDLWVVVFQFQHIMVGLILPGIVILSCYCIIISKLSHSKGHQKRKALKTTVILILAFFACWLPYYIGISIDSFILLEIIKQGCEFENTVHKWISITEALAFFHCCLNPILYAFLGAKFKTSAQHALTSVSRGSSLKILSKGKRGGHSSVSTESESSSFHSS

With `C[C@@H](NC(=O)[C@@H](CCCNC(=N)N)NC(=O)[C@@H](CN)NC(=O)CCCCCNC(=O)[C@@H](CNC(=O)CC[C@H](C(=O)O)N1CCN(CC(=O)O)CCN(CC(=O)O)CCN(CC(=O)O)CC1)NC(=O)[C@@H](CNC(=O)c1ccc([Si](F)(C(C)(C)C)C(C)(C)C)cc1)NC(=O)CC[C@@H](NC(=O)N[C@H](CCC(=O)O)C(=O)O)C(=O)O)C(=O)Nc1ccc(C(=O)NCCC[C@@H]2C(=O)N[C@@H](CCCNC(=N)N)C(=O)N[C@@H](Cc3ccc4ccccc4c3)C(=O)NCC(=O)N[C@H](Cc3ccc(O)cc3)C(=O)N2C)cc1` [CXCR4-SiFA-5 [Ga]] (I: {dE-CO-d(γGlu)}-[dDap](Benzoyl(4-SiFtBu2))[dDap](X7)[Ahx][dDap][dR][dA][4Abz] / II: cyclo([dY][dNMeOrn]R[2Nal]G); amide I:C-II:2) the logD7.4 [1] was −1.85 ± 0.07 (7), the IC50 (CXCR4; [4]) was 36.5 ± 4.51 nM and the “Internalized in relation to 125I-Fc-131 [%]” value (“Internalized in relation … [%]” below) ([2]; 30 min) was 233 ± 44.1%. The “Cell-bound [%]” value ([2]; 30 min) was 0.66 ± 0.22%, the “Internalized [%]” value ([2]; 30 min) was 3.46 ± 0.57% and the “Internalization [% Fc-131]” value ([2]; 90 min) was 209 % Fc-131. For the same molecule, the “Internalized in relation … [%]” value ([2]; 90 min) was 209 ± 27.2%, the “Cell-bound [%]” value ([2]; 90 min) was 0.72 ± 0.34% and the “Internalized [%]” value ([2]; 90 min) was 3.70 ± 0.41%.

In the case of `C[C@@H](NC(=O)[C@@H](CCCNC(=N)N)NC(=O)[C@@H](CN)NC(=O)CCCCCNC(=O)[C@@H](CNC(=O)CC[C@H](C(=O)O)N1CCN(CC(=O)O)CCN(CC(=O)O)CCN(CC(=O)O)CC1)NC(=O)C[N+](C)(C)Cc1ccc([Si](F)(C(C)(C)C)C(C)(C)C)cc1)C(=O)Nc1ccc(C(=O)NCCC[C@@H]2C(=O)N[C@@H](CCCNC(=N)N)C(=O)N[C@@H](Cc3ccc4ccccc4c3)C(=O)NCC(=O)N[C@H](Cc3ccc(O)cc3)C(=O)N2C)cc1` [CXCR4-SiFA-6 [Ga]], the logD7.4 [1] is reported as −1.05 ± 0.06 (8), the IC50 (CXCR4; [4]) is reported as 5.52 ± 0.71 nM and the “Internalized in relation … [%]” value ([2]; 30 min) is reported as 829 ± 48.1%. For the same molecule, the “Cell-bound [%]” value ([2]; 30 min) was 0 ± 0.29%, the “Internalized [%]” value ([2]; 30 min) was 37.0 ± 1.06% and the “Internalization [% Fc-131]” value ([2]; 90 min) was 980 % Fc-131. For the same molecule, the “Internalized in relation … [%]” value ([2]; 90 min) was 980 ± 85.6%, the “Cell-bound [%]” value ([2]; 90 min) was 0.81 ± 0.14% and the “Internalized [%]” value ([2]; 90 min) was 48.1 ± 1.26%.

With `C[C@@H](NC(=O)[C@@H](CCCNC(=N)N)NC(=O)[C@@H](CN)NC(=O)CCCCCNC(=O)[C@@H](CNC(=O)CC[C@H](C(=O)O)N1CCN(CC(=O)O)CCN(CC(=O)O)CCN(CC(=O)O)CC1)NC(=O)[C@@H](CNC(=O)c1ccc([Si](F)(C(C)(C)C)C(C)(C)C)cc1)NC(=O)CC[C@@H](NC(=O)N[C@H](CCC(=O)O)C(=O)O)C(=O)O)C(=O)Nc1ccc(C(=O)NCCC[C@@H]2C(=O)N[C@@H](CCCNC(=N)N)C(=O)N[C@@H](Cc3ccc4ccccc4c3)C(=O)NCC(=O)N[C@H](Cc3ccc(O)cc3)C(=O)N2C)cc1` [CXCR4-SiFA-5 [Lu]] (I: {dE-CO-d(γGlu)}-[dDap](Benzoyl(4-SiFtBu2))[dDap](X7)[Ahx][dDap][dR][dA][4Abz] / II: cyclo([dY][dNMeOrn]R[2Nal]G); amide I:C-II:2) the logD7.4 [1] was −1.73 ± 0.05 (6) and the IC50 (CXCR4; [4]) was 45.8 ± 17.4 nM.

In the case of `C[C@@H](NC(=O)[C@@H](CCCNC(=N)N)NC(=O)[C@@H](CN)NC(=O)CCCCC[N+]1=C(/C=C/C=C/C=C2/N(C)c3ccc(S(=O)(=O)O)cc3C2(C)C)C(C)(C)c2cc(S(=O)(=O)[O-])ccc21)C(=O)Nc1ccc(C(=O)NCCC[C@@H]2C(=O)N[C@@H](CCCNC(=N)N)C(=O)N[C@H](Cc3ccc4ccccc4c3)C(=O)NCC(=O)N[C@@H](Cc3ccc(O)c(I)c3)C(=O)N2C)cc1` [CXCR4-OI-2] (cyclo([Tyr(3-I)][dNMeOrn]([4Abz-dA-dR-dDap-X6])R[d2Nal]G)), the logD7.4 [1] is reported as −1.83 ± 0.02 (5), the IC50 (CXCR4; [4]) is reported as 10.2 ± 3.95 nM and the tissue uptake at 1 h ([3]; Blood, read-out: % iD/g Blood) is reported as 1.73 %ID/g. For the same molecule, the tissue uptake at 1 h ([3]; Bone, read-out: % iD/g Bone) was 1.2 %ID/g, the tissue uptake at 1 h ([3]; Heart, read-out: % iD/g Heart) was 1.84 %ID/g and the tissue uptake at 1 h ([3]; Intestine, read-out: % iD/g Intestine) was 1.88 %ID/g. The tissue uptake at 1 h ([3]; Kidney, read-out: % iD/g Kidney) was 13.9 %ID/g, the tissue uptake at 1 h ([3]; Liver, read-out: % iD/g Liver) was 35.3 %ID/g and the tissue uptake at 1 h ([3]; Lung, read-out: % iD/g Lung) was 5.54 %ID/g. The tissue uptake at 1 h ([3]; Muscle, read-out: % iD/g Muscle) was 0.41 %ID/g, the tissue uptake at 1 h ([3]; Pancreas, read-out: % iD/g Pancreas) was 1.1 %ID/g and the tissue uptake at 1 h ([3]; Spleen, read-out: % iD/g Spleen) was 16.1 %ID/g. The tissue uptake at 1 h ([3]; Stomach, read-out: % iD/g Stomach) was 4.01 %ID/g, the tissue uptake at 1 h ([3]; Thyroid, read-out: % iD/g Thyroid) was 1.46 %ID/g and the tissue uptake at 1 h ([3]; Tumor, read-out: % iD/g Tumor) was 1.1 %ID/g.

In the case of `CC[C@H](C)[C@@H]([C@@H](CC(=O)N1CCC[C@H]1[C@H](OC)[C@@H](C)C(=O)N[C@H](C)[C@@H](O)c1ccccc1)OC)N(C)C(=O)[C@@H](NC(=O)[C@H](C(C)C)N(C)C(=O)OCc1ccc(NC(=O)[C@H](CCCNC(N)=O)NC(=O)[C@@H](NC(=O)CCCCCN2C(=O)CC(SCC[C@@H](NC(C)=O)C(=O)N[C@H](CNC(=O)CC[C@H](C(=O)O)N3CCN(CC(=O)O)CCN(CC(=O)O)CCN(CC(=O)O)CC3)C(=O)NCCCCCC(=O)N[C@H](CN)C(=O)N[C@H](CCCNC(=N)N)C(=O)N[C@H](C)C(=O)Nc3ccc(C(=O)NCCC[C@@H]4C(=O)N[C@@H](CCCNC(=N)N)C(=O)N[C@@H](Cc5ccc6ccccc6c5)C(=O)NCC(=O)N[C@H](Cc5ccc(O)cc5)C(=O)N4C)cc3)C2=O)C(C)C)cc1)C(C)C` (stereo partly shown) [CXCR4-MMAE-4] (I: V[Cit][PABC][NMeV]V[Dil][Dolaproine]-X10 / II: Ac-[d(hCys)][dDap](X7)[Ahx][dDap][dR][dA][4Abz] / III: cyclo([2Nal]G[dY][dNMeOrn]R); linker I:N-II:1 via X11; amide II:C-III:4), the logD7.4 [1] is reported as −1.04 ± 0.07 (8) and the IC50 (CXCR4) is reported as 113 ± 20 nM.
